PubChem BioAssay AID330 (DTP/NCI, 2004)
Where “and” joins values, the source holds several entries; their conditions need not be identical. Equal entries are not always repeated. Inconclusive results and toxic doses are left out. Rule for the calls: active = survival T/C of 150% or more; inactive = T/C below 125% in these data.

Tested on: P388 leukemia ip, CD2F1 mice, survival T/C
Test: NCI In Vivo Anticancer Drug Screen. Data for tumor model P388 Leukemia (intraperitoneal) in CD2F1 (CDF1) mice
Details: endpoint: median survival time, higher = longer survival
Method in brief: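 Mice carrying the transplanted tumor received test compound or vehicle. Survival was recorded in each group, and the value is the treated-group measurement divided by that of the vehicle-treated control group.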

[1] = dose: 100.0 mg/kg/injection, schedule: Q04DX003 (ip), vehicle: Klucel (hydroxypropylcellulose) (HPC)
[2] = dose: 200.0 mg/kg/injection, schedule: Q04DX003 (ip), vehicle: Klucel (hydroxypropylcellulose) (HPC)
[3] = dose: 100.0 mg/kg/injection, schedule: Q04DX003 (ip), vehicle: saline with Tween-80
[4] = dose: 200.0 mg/kg/injection, schedule: Q04DX003 (ip), vehicle: saline with Tween-80
[5] = dose: 60.0 mg/kg/injection, schedule: Q01DX005 (ip), vehicle: saline with Tween-80
[6] = dose: 120.0 mg/kg/injection, schedule: Q01DX005 (ip), vehicle: saline with Tween-80
[7] = dose: 240.0 mg/kg/injection, schedule: Q01DX005 (ip), vehicle: saline with Tween-80
[8] = dose: 50.0 mg/kg/injection, schedule: Q01DX005 (ip), vehicle: Klucel (hydroxypropylcellulose) (HPC)
[9] = dose: 100.0 mg/kg/injection, schedule: Q01DX005 (ip), vehicle: Klucel (hydroxypropylcellulose) (HPC)
[10] = dose: 200.0 mg/kg/injection, schedule: Q01DX005 (ip), vehicle: Klucel (hydroxypropylcellulose) (HPC)
[11] = dose: 50.0 mg/kg/injection, schedule: Q01DX005 (ip), vehicle: saline with Tween-80
[12] = dose: 100.0 mg/kg/injection, schedule: Q01DX005 (ip), vehicle: saline with Tween-80
[13] = dose: 25.0 mg/kg/injection, schedule: Q01DX009 (ip), vehicle: saline with Tween-80
[14] = dose: 50.0 mg/kg/injection, schedule: Q01DX009 (ip), vehicle: saline with Tween-80
[15] = dose: 100.0 mg/kg/injection, schedule: Q01DX009 (ip), vehicle: saline with Tween-80

Measured: T/C

Oc1ccccc1-c1nc(-c2ccccc2)c(-c2ccccc2)[nH]1
inactive: [1] 106 % of control | [2] 101 % of control | dose: 400.0 mg/kg/injection, schedule: Q04DX003 (ip), vehicle: Klucel (hydroxypropylcellulose) (HPC) 101 % of control

CCCCOC(=O)CSSCC(=O)OCCCC
inactive: dose: 50.0 mg/kg/injection, schedule: Q04DX003 (ip), vehicle: saline with Tween-80 109 % of control | [3] 109 % of control | [4] 109 % of control

CCOC(=O)CCc1c(-c2ccccc2)[nH]c2ccccc12
inactive: [5] 106 % of control | [6] 107 % of control | [7] 101 % of control

CNc1nc(N)nc(N)c1N1CCN(c2ccc(C(=O)O)cc2)CC1
inactive: dose: 60.0 mg/kg/injection, schedule: Q01DX005 (ip), vehicle: Klucel (hydroxypropylcellulose) (HPC) 91 % of control | dose: 120.0 mg/kg/injection, schedule: Q01DX005 (ip), vehicle: Klucel (hydroxypropylcellulose) (HPC) 93 % of control | dose: 240.0 mg/kg/injection, schedule: Q01DX005 (ip), vehicle: Klucel (hydroxypropylcellulose) (HPC) 87 % of control

COc1ccc(C2(O)c3ccccc3C(=O)c3ccccc32)cc1
inactive: [8] 95 % of control | [9] 96 % of control | [10] 107 % of control

Cc1ccc(C(=O)NNC(O)C(F)(F)F)cc1 (stereo unspecified)
inactive: [1] 97 % of control | [2] 102 % of control

CCOc1cccc2c1C(=O)c1cccc(OCC)c1C2=O
inactive: [3] 109 % of control | [4] 104 % of control | dose: 400.0 mg/kg/injection, schedule: Q04DX003 (ip), vehicle: saline with Tween-80 100 % of control

CCn1c(=O)c(Cl)c2n(C)c3ccccc3n2c1=O
inactive: [5] 97 % of control | [6] 95 % of control | [7] 94 % of control

CCC1=CC2CN3CCc4c([nH]c5ccccc45)C(C(=O)OC)(C2)C13 (stereo unspecified)
inactive: [11] 105 % of control | [12] 108 % of control

NC(=O)OCCCCOC(N)=O
inactive: dose: 50.0 mg/kg/injection, schedule: Q01DX009 (ip), vehicle: Klucel (hydroxypropylcellulose) (HPC) 100 % of control | dose: 100.0 mg/kg/injection, schedule: Q01DX009 (ip), vehicle: Klucel (hydroxypropylcellulose) (HPC) 98 % of control

CC1=C(C)C(=O)O[C@@H]([C@](C)(O)[C@]2(O)CC[C@@]3(O)[C@@H]4C[C@H]5O[C@]56[C@@H](O)C=CC(=O)[C@]6(C)[C@H]4CC[C@]23C)C1
inactive: dose: 1.0 mg/kg/injection, schedule: Q01DX005 (ip), vehicle: distilled water + Tween-80 108 % of control | dose: 2.0 mg/kg/injection, schedule: Q01DX005 (ip), vehicle: distilled water + Tween-80 122 % of control | dose: 4.0 mg/kg/injection, schedule: Q01DX005 (ip), vehicle: distilled water + Tween-80 111 % of control and 113 % of control | dose: 4.0 mg/kg/injection, schedule: Q01DX005 (ip), vehicle: saline 122 % of control | dose: 8.0 mg/kg/injection, schedule: Q01DX005 (ip), vehicle: distilled water + Tween-80 108 % of control and 113 % of control | dose: 16.0 mg/kg/injection, schedule: Q01DX005 (ip), vehicle: distilled water + Tween-80 116 % of control | dose: 16.0 mg/kg/injection, schedule: Q01DX005 (ip), vehicle: saline 122 % of control | dose: 16.0 mg/kg/injection, schedule: Q01DX009 (ip), vehicle: saline 93 % of control | dose: 32.0 mg/kg/injection, schedule: Q01DX009 (ip), vehicle: saline 114 % of control

COc1ccc(/C=N/NC(=S)NN)cc1
inactive: [5] 99 % of control | [6] 100 % of control | [7] 98 % of control

CCOC(=O)C1=C(C)Oc2cc3c(cc2C1c1cc(OC)c(OC)c(OC)c1)OCO3 (stereo unspecified)
inactive: [5] 97 % of control | [6] 98 % of control | [7] 94 % of control

COc1ccc2c(c1OC)OCC(CN(C)C)C2=O (stereo unspecified)
inactive: dose: 15.0 mg/kg/injection, schedule: Q01DX005 (ip), vehicle: saline 100 % of control and 102 % of control | dose: 30.0 mg/kg/injection, schedule: Q01DX005 (ip), vehicle: saline 108 % of control and 111 % of control | dose: 60.0 mg/kg/injection, schedule: Q01DX005 (ip), vehicle: saline 106 % of control and 110 % of control and 114 % of control | dose: 120.0 mg/kg/injection, schedule: Q01DX005 (ip), vehicle: saline 114 % of control and 116 % of control

c1ccc(CN=C(Nc2ccc(C3=NCCN3)cc2)c2cccc(C(=NCc3ccccc3)Nc3ccc(C4=NCCN4)cc3)c2)cc1
inactive: [11] 104 % of control | [12] 104 % of control | dose: 200.0 mg/kg/injection, schedule: Q01DX005 (ip), vehicle: saline with Tween-80 104 % of control

O=[N+]([O-])c1ccc(/C=C/[P+](c2ccccc2)(c2ccccc2)c2ccccc2)o1
inactive: dose: 0.78 mg/kg/injection, schedule: Q01DX009 (ip), vehicle: saline 103 % of control | dose: 1.56 mg/kg/injection, schedule: Q01DX009 (ip), vehicle: saline 98 % of control | dose: 3.12 mg/kg/injection, schedule: Q01DX009 (ip), vehicle: saline 101 % of control

COc1ccc(C(=O)CCN(C)C)cc1
inactive: dose: 50.0 mg/kg/injection, schedule: Q01DX009 (ip), vehicle: saline 104 % of control | dose: 100.0 mg/kg/injection, schedule: Q01DX009 (ip), vehicle: saline 104 % of control

CC(=O)OCC1OC(Oc2cccc(C=C(C(C)=O)C(C)=O)c2)C(OC(C)=O)C(OC(C)=O)C1OC(C)=O (stereo unspecified)
inactive: [8] 100 % of control | [9] 98 % of control | [10] 105 % of control

CCCCCCCCCCCCCCCC(O)S(=O)(=O)O (stereo unspecified)
inactive: [13] 100 % of control | [14] 100 % of control | [15] 100 % of control

O=c1[nH]c2cc(Cl)ccc2nc1/C=C(\O)c1ccc2ccccc2c1
inactive: [5] 89 % of control | [6] 89 % of control | [7] 110 % of control

O=C1C2C3C=CC(C2C(=O)N1COP(=O)(OCc1ccccc1)OCc1ccccc1)C1C2C(=O)N(COP(=O)(OCc4ccccc4)OCc4ccccc4)C(=O)C2C31 (stereo unspecified)
inactive: dose: 6.25 mg/kg/injection, schedule: Q01DX009 (ip), vehicle: saline + Tween-80 + alcohol 99 % of control | dose: 12.5 mg/kg/injection, schedule: Q01DX009 (ip), vehicle: saline + Tween-80 + alcohol 105 % of control | dose: 25.0 mg/kg/injection, schedule: Q01DX009 (ip), vehicle: saline + Tween-80 + alcohol 103 % of control | dose: 50.0 mg/kg/injection, schedule: Q01DX009 (ip), vehicle: saline + Tween-80 + alcohol 106 % of control | dose: 75.0 mg/kg/injection, schedule: Q01DX008 (ip), vehicle: saline + Tween-80 + alcohol 109 % of control | dose: 100.0 mg/kg/injection, schedule: Q01DX009 (ip), vehicle: saline + Tween-80 + alcohol 107 % of control | dose: 150.0 mg/kg/injection, schedule: Q01DX008 (ip), vehicle: saline + Tween-80 + alcohol 99 % of control | dose: 300.0 mg/kg/injection, schedule: Q01DX008 (ip), vehicle: saline + Tween-80 + alcohol 100 % of control

O=C(O)CSc1nnc2c3ccccc3c3ccccc3c2n1
inactive: dose: 12.5 mg/kg/injection, schedule: Q01DX009 (ip), vehicle: saline with Tween-80 97 % of control | [13] 100 % of control | [14] 100 % of control and 93 % of control | [15] 87 % of control | dose: 200.0 mg/kg/injection, schedule: Q01DX009 (ip), vehicle: saline with Tween-80 101 % of control
